From ChEMBL document CHEMBL5303573, “Mapping human microbiome drug metabolism by gut bacteria and their genes” (Nature, 2019)

What was measured:
Assay type in all cases: ADME
Set-up in all cases: dose 2 uM
Settings in all cases: 2 µM
[1] = target: T1, Regulatory protein (Bacteroides thetaiotaomicron, UniProt Q8A576); experiment: (§1) The drug is tested on Bacteroides thetaiotaomicron strain: VPI-5482 for biotransformation. The drug concentrations were measured before and after a 12-h incubation by liquid-chromatography-coupled mass spectrometry (LC–MS)
T1 sequence (Q8A576 whole entry): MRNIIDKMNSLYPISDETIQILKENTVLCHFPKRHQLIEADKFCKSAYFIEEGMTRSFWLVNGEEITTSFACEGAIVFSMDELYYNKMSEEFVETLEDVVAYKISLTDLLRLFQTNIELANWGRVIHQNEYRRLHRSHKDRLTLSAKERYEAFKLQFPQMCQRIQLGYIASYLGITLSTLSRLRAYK

[2] = target: T2, Nitroreductase (Bacteroides thetaiotaomicron, UniProt Q8A911); experiment: as §1
T2 sequence (Q8A911 whole entry): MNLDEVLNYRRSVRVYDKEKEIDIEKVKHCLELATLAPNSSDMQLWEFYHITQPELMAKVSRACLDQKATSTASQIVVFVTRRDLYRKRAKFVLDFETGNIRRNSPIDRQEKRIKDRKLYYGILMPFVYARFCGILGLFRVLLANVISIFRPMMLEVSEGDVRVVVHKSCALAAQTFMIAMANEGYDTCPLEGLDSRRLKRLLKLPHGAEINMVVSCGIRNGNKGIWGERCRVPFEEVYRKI

[3] = target: T3, Nitroreductase-like protein (Bacteroides thetaiotaomicron, UniProt Q8AB93); experiment: as §1
T3 sequence (Q8AB93 whole entry): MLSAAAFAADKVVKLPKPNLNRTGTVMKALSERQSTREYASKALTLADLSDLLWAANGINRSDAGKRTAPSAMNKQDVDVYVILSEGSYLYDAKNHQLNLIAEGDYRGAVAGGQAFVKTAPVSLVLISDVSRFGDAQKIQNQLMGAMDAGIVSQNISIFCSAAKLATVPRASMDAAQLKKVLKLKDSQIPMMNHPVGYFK

[4] = target: T4, Lipolytic enzyme, G-D-S-L family (Bacteroides thetaiotaomicron, UniProt Q8A0E6); experiment: as §1
T4 sequence (Q8A0E6 whole entry): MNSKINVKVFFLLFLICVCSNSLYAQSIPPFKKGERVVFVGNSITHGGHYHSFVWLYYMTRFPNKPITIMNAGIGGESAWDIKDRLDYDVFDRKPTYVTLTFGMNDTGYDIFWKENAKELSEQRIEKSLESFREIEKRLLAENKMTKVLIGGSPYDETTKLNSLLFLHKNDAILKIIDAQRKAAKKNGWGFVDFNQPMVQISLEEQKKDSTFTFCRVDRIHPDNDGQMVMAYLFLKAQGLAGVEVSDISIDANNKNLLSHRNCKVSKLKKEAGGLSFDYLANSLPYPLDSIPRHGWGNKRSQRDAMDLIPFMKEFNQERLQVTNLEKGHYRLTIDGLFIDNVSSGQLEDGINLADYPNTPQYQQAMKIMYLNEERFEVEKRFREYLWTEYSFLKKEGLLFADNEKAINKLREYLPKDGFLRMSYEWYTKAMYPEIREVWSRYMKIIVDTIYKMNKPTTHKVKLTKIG

[5] = target: General stress protein (Bacteroides thetaiotaomicron, UniProt Q8A7U5); experiment: as §1
[6] = target: T5, Lipolytic enzyme, G-D-S-L family (Bacteroides thetaiotaomicron, UniProt Q8A0C5); experiment: as §1
T5 sequence (Q8A0C5 whole entry): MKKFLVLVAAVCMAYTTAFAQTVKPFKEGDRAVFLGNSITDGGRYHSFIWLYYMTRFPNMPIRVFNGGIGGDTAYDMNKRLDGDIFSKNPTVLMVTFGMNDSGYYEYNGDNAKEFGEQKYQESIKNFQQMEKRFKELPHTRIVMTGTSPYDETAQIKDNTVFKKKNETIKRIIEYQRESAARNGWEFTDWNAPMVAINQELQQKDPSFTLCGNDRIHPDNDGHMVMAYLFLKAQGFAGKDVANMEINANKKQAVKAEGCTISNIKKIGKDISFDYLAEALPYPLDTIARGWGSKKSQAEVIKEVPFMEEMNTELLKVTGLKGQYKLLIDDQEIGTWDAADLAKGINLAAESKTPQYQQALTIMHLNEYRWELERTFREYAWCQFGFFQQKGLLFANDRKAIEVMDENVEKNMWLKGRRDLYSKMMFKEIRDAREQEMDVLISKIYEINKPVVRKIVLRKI

[7] = target: T6, Xylanase (Bacteroides thetaiotaomicron, UniProt Q8A8H5); experiment: as §1
T6 sequence (Q8A8H5 whole entry): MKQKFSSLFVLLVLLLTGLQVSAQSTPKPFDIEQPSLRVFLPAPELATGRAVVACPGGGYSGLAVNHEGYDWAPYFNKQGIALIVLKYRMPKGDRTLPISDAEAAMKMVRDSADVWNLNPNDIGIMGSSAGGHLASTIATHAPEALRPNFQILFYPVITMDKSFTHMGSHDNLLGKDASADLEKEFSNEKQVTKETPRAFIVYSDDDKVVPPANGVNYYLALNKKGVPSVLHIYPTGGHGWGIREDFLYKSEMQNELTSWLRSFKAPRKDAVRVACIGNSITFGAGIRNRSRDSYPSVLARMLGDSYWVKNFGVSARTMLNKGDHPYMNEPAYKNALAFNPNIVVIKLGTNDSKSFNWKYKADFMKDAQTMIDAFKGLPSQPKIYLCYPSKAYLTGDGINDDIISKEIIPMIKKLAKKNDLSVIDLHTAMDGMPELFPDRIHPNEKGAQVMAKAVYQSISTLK

[8] = target: T7, NADH dehydrogenase/NAD(P)H nitroreductase (Bacteroides thetaiotaomicron, UniProt Q8A8L9); experiment: as §1
T7 sequence (Q8A8L9 whole entry): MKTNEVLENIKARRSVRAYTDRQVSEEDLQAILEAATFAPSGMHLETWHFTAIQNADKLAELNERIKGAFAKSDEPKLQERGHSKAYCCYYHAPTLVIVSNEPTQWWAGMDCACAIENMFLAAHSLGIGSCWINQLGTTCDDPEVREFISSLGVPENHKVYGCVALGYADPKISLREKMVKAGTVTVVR

[9] = target: T8, Endoglucanase E (EGE) (Bacteroides thetaiotaomicron, UniProt Q8AAL9); experiment: as §1
T8 sequence (Q8AAL9 whole entry): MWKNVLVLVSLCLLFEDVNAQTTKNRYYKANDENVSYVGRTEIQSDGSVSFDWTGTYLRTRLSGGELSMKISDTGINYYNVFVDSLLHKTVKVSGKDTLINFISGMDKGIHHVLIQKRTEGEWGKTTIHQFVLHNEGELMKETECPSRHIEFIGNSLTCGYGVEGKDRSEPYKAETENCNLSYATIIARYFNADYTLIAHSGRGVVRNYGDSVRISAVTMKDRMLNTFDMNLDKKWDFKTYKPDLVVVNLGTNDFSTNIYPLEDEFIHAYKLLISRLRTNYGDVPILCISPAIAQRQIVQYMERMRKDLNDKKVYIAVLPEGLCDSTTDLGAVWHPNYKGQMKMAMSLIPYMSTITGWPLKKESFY

General stress protein, sequence (Q8A7U5 1-138, change not shown): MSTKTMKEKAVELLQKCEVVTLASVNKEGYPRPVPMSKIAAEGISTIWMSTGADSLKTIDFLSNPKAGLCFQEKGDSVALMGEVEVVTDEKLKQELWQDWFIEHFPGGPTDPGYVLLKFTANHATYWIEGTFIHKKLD

SMILES	Bacterial Biotransformation [1]	Bacterial Biotransformation [2]	Bacterial Biotransformation [3]	Bacterial Biotransformation [4]	Bacterial Biotransformation [5]	Bacterial Biotransformation [6]	Bacterial Biotransformation [7]	Bacterial Biotransformation [8]	Bacterial Biotransformation [9]
C#C[C@]1(O)CC[C@H]2[C@@H]3CCC4=CC(=O)CC[C@@H]4[C@H]3CC[C@@]21CC [LEVONORGESTREL]	Compound NOT metabolized	Compound NOT metabolized	Compound NOT metabolized	Compound NOT metabolized	Compound NOT metabolized	Compound NOT metabolized	Compound NOT metabolized	Compound NOT metabolized	Compound NOT metabolized
C#C[C@]1(OC(C)=O)CC[C@H]2[C@@H]3CCC4=CC(=O)CC[C@@H]4[C@H]3CC[C@@]21C [NORETHINDRONE ACETATE]	Compound NOT metabolized	Compound NOT metabolized	Compound NOT metabolized	Compound NOT metabolized	Compound NOT metabolized	Compound NOT metabolized	Compound NOT metabolized	Compound NOT metabolized	Compound NOT metabolized
N#Cc1ccc2c(c1)N(CCCN1CCC(O)CC1)c1ccccc1S2 [PERICIAZINE]	Compound NOT metabolized	Compound NOT metabolized	Compound NOT metabolized	Compound NOT metabolized	Compound NOT metabolized	Compound NOT metabolized	Compound NOT metabolized	Compound NOT metabolized	Compound NOT metabolized

More lines, now with the values ahead:

Bacterial Biotransformation [1]	Bacterial Biotransformation [2]	Bacterial Biotransformation [3]	Bacterial Biotransformation [4]	Bacterial Biotransformation [5]	Bacterial Biotransformation [6]	Bacterial Biotransformation [7]	Bacterial Biotransformation [8]	Bacterial Biotransformation [9]	SMILES
Compound NOT metabolized	Compound NOT metabolized	Compound NOT metabolized	Compound NOT metabolized	Compound NOT metabolized	Compound metabolized	Compound NOT metabolized	Compound NOT metabolized	Compound NOT metabolized	CC(=O)OCC(=O)[C@@]1(OC(C)=O)[C@@H](C)C[C@H]2[C@@H]3C[C@H](F)C4=CC(=O)C=C[C@]4(C)[C@@]3(F)[C@@H](O)C[C@@]21C [DIFLORASONE DIACETATE]
Compound NOT metabolized	Compound NOT metabolized	Compound NOT metabolized	Compound NOT metabolized	Compound NOT metabolized	Compound metabolized	Compound NOT metabolized	Compound NOT metabolized	Compound NOT metabolized	COc1ccc([C@@H]2Sc3ccccc3N(CCN(C)C)C(=O)[C@@H]2OC(C)=O)cc1 [DILTIAZEM]
Compound NOT metabolized	Compound NOT metabolized	Compound NOT metabolized	Compound NOT metabolized	Compound NOT metabolized	Compound metabolized	Compound NOT metabolized	Compound NOT metabolized	Compound NOT metabolized	CC(=O)OCC(CCn1cnc2cnc(N)nc21)COC(C)=O [FAMCICLOVIR]
